Tested on: human osteoblasts from patients with Osteoarthritis
Experiment: Pathological osteoblast proliferation induced by IL-1β, MTT assay
Assay type: cell-based
Conditions: IL-1β 2 ng/ml; time course 24 h, 6, 9 and 14 days; low concentrations; FIG. 11
Procedure: Human osteoblasts were purified from material obtained from patients undergoing knee replacement. Trabecular bone cells were isolated by spontaneous outgrowth culture methods. Purified osteoblasts were stimulated with IL-1β 2 ng/ml. Osteoblast proliferation was studied by MTT analysis in time course experiments (24 h, 6, 9, and 14 days). The form A of the sodium salt of (R)-4-(1-(6-(4-(trifluoromethyl)benzyl)-6-azaspiro[2.5]octane-5-carboxamido)cyclopropyl)benzoic acid resulted to be extremely effective in preventing in vitro osteoblast proliferation stimulated by IL1b.
This model has been performed to understand if the compound of the invention could correct the pathological hyperproliferation of osteoblasts taken from patients suffering from degenerative pathologies eventually resulting in a total joint replacement surgical procedure.
Trabecular bone of the tibial plateau was obtained from patients with Osteoarthritis (OA) undergoing joint replacement surgery. This material was purchased from Alphenyx (Marseille, France). […] The cell proliferation was analysed in a time course protocol by MTT assay. […] MTT was a tetrazolium salt especially useful to quantify living metabolically active cells. […] The plate was then read at λ=540 nm. […]

Compound: O=C([O-])c1ccc(C2(NC(=O)[C@H]3CC4(CCN3Cc3ccc(C(F)(F)F)cc3)CC4)CC2)cc1.[Na+] [Form A, sodium (R)-4-(1-(6-(4-(trifluoromethyl)benzyl)-6-azaspiro[2.5]octane-5-carboxamido)cyclopropyl)benzoate]
- osteoblast proliferation (MTT): able to dose-dependently counteract osteoblast proliferation

Reference: patent US12433875B2, “(R)-4-(1-(6-(4-(trifluoromethyl)benzyl)-6-azaspiro[2.5]octane-5-carboxamido)-cyclopropyl) benzoic acid or its salt also in polymorphic form a for use in the prevention of heterotopic ossification” (ROTTAPHARM BIOTECH S.R.L., priority 2019, dated 2025)
